Source: patent publication US12491229B2, “Stabilized peptide composition” (Shionogi & Co., Ltd., priority 2014, dated 2025)
Ends that are not written are not given here.

Legend:
Type in all cases: physicochemical
[1] = Solubility study 2 of each peptide against pH (white turbidity on decreasing pH); parameters: key: ∘: dissolution; x: white turbidity; conditions: peptide 1.5 mg/g, pH decreased gradually with hydrochloride solution
Method: As shown in the study 1 described above, when the peptide was mixed directly with water for injection, the bulk was formed, and it was difficult to dissolve the bulk. So, solubility of peptides was evaluated thermodynamically by dissolving the peptide completely once with high pH, and decreasing the solution pH gradually to check pH when white turbidity was observed.
The peptide described as SEQ ID NO: 1 or SEQ ID NO: 2 was dissolved into the solution with pH10 and solubility was examined by decreasing the solution pH in each. 15 mg of the peptide described as SEQ ID NO: 1 or SEQ ID NO: 2 was mixed with water, 0.1 mol/L sodium hydroxide solution was added for dissolution, and pH was adjusted to 10. Peptide concentration was adjusted to 1.5 mg/g. In each sample solution, hydrochloride solution was added to decrease pH gradually, and the appearance of the solution was checked.

[2] = Solution stability of each peptide against pH; conditions: for stability in the solution state: conclusion from studies on stability in solution with different pH
Method: Content and related substances were measured in accordance with the method of liquid chromatography described in general test section in Japan Pharmacopeia. To prepare the test sample, water for injection was added to the lyophilized sample, and each peptide concentration was adjusted to 0.12 mg/mL. Peak area of each peptide in the sample and the one in each standard of the drug substance were obtained, and content was calculated from dilution ratio and ratio of peak area in the sample to one in each standard described below. Residual of the content in the stability test was against the content at the time when the lyophilized sample was prepared. Related substances were calculated by ratio of peak area of the target related substance to all related substances and drug substances in each sample solution. The level of increase of the related substances was evaluated by the difference from the related substance at the moment when the lyophilized sample was prepared.
Standard solution for measuring content of the peptide described as SEQ ID NO: 1 or SEQ ID NO: 2 was prepared in each by dissolving the peptide described above into 1.6 mg/mL phosphate solution and by adjusting each peptide concentration into 0.15 mg/mL. Standard solution for measuring content of the peptide described as SEQ ID NO: 3, SEQ ID NO: 4 or SEQ ID NO: 5 was prepared in each by dissolving the peptide described above into 12.1 mg/mL of 2-amnino-2-hydroxymethyl-1,3-propanediol aqueous solution and by adjusting each peptide concentration to 0.15 mg/mL. For the stationary phase of the liquid chromatography, column with octadecyl group was used, and the measurement was performed by gradient elution method. Flow rate in the measurement was set to 1.0 mL/min.
Stability of the peptide described as SEQ ID NOs: 1-5 was evaluated in each.
The sample solution prepared with the compositions above was stored for 6 hours at 25° C. Then, the level of increase of related substances derived from the peptides described as SEQ ID NO: 1, SEQ ID NO: 2 or SEQ ID NO: 3 was measured in each, and residual of the peptides described as SEQ ID NO: 4 or SEQ ID NO: 5 was measured in each. The analytical procedure for the related substances and peptide contents was described above.

[3] = Solubility study 1 of each peptide against solution pH; conditions: pH 2-12, peptide mixed at 3 mg/mL in water for injection adjusted with hydrochloride or sodium hydroxide solution; FIG. 1
Method: Solubility of the peptides described as SEQ ID NOs: 1-5 was evaluated with the condition of pH 2-12. Hydrochloride solution or sodium hydroxide solution was added to water for injection to adjust pH, and each peptide was mixed with the adjusted solution, where the peptide concentration was set to 3 mg/mL. The mixed solution was filtered, the filtered solution was diluted with 10-20 parts of water for injection, and peak area of each peptide was obtained by liquid chromatography (same test procedure described above). From peak area of each peptide, dilution ratio of the filtered solution, peak area and concentration of each standard solution described above, peptide concentration was obtained.

Question: Which Solution state ([1]; pH 5.4) does the source give for EYYELFVNI [SEQ ID NO: 1, EYYELFVNI] here?
Answer: x

Question: And the Solution state ([1]; pH 5.6)?
Answer: ∘

Question: And the Solution state ([1]; pH 6)?
Answer: ∘

Question: And the Solution state ([1]; pH 6.6)?
Answer: ∘

Question: And the Solution state ([1]; pH 7.9)?
Answer: ∘

Question: And the Solution state ([1]; pH 10)?
Answer: ∘

Question: And the “stability in the solution state” value [2]?
Answer: good stability

Question: What about the “Solubility of each peptide against pH” value [3] of the same sequence?
Answer: decreased with decreasing pH of the solution

Question: For IYNEYIYDL [SEQ ID NO: 2, IYNEYIYDL], which Solution state ([1]; pH 5) is on record?
Answer: x

Question: What about the Solution state ([1]; pH 5.5) of the same sequence?
Answer: ∘

Question: And the Solution state ([1]; pH 7)?
Answer: ∘

Question: And the Solution state ([1]; pH 8)?
Answer: ∘

Question: What about the Solution state ([1]; pH 9) of the same sequence?
Answer: ∘

Question: And the Solution state ([1]; pH 10)?
Answer: ∘

Question: And the “stability in the solution state” value [2]?
Answer: poor stability

Question: And the “Solubility of each peptide against pH” value [3]?
Answer: decreased with decreasing pH of the solution

Question: Which “stability in the solution state” value [2] does the source give for “KTVNELQNL (listed as Homo sapiens) [SEQ ID NO: 5, peptide derived from KOC1 protein]” here?
Answer: poor stability

Question: And the “residual of the peptide” value ([2]; five-peptide solution (Table 2) pH 8-11 stored for 6 hours at 25° C., FIGS. 2-4, 2-5)?
Answer: prominently decreased and solution stability decreased with increasing solution pH

Question: Which results are given for “RYCNLEGPPI (listed as Homo sapiens) [SEQ ID NO: 3, peptide derived from URLC10 protein]”?
Answer: stability in the solution state [2]: poor stability; level of increase of related substances derived from the peptide ([2]; five-peptide solution (Table 2) pH 8-11 stored for 6 hours at 25° C., FIGS. 2-1 to 2-3): increased and solution stability decreased, when solution pH was 10.0-11.0

Question: With VYGIRLEHF [SEQ ID NO: 4, VYGIRLEHF] as the sequence, how does the “stability in the solution state” value [2] read?
Answer: good stability

Question: And the “Solubility of each peptide against pH” value [3]?
Answer: low when solution pH was around neutral
